Reference: BindingDB's records for doi:10.1016/s0960-894x(02)00078-1 (Xenova, 2002)

The compounds below were run against Plasminogen activator inhibitor 1 (Homo sapiens, UniProt P05121) (assay: ChEBML_222791).
Chain of Plasminogen activator inhibitor 1 (P05121 whole entry): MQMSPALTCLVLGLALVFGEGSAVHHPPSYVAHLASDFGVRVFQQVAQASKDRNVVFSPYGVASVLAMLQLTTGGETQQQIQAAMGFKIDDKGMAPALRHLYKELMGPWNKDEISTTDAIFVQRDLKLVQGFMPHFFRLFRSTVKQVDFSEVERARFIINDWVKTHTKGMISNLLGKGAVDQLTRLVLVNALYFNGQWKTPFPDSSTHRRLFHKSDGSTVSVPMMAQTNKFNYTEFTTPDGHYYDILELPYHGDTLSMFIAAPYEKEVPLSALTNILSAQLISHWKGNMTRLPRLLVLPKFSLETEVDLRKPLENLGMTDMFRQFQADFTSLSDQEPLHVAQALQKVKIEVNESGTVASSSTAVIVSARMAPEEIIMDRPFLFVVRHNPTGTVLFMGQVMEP
Description: Inhibitory activity against human plasminogen activator inhibitor-1 (PAI-1) evaluated by chromogenic assay.
In the case of `O=C(O)CCCCCCCOc1ccc(NC(=O)C2C(=O)CN(c3ccccc3Cl)C2=O)cc1` (centres undefined) [8-(4-{[1-(2-Chloro-phenyl)-4-hydroxy-2-oxo-2,5-dihydro-1H-pyrrole-3-carbonyl]-amino}-phenoxy)-octanoic acid], the IC50 is reported as over 50 µM. For `CC(=O)Nc1ccc(N2CC(=O)C(C(=O)Nc3ccc(OCCCCCCCC(=O)O)cc3)C2=O)cc1` (centres undefined) [8-(4-{[1-(4-Acetylamino-phenyl)-4-hydroxy-2-oxo-2,5-dihydro-1H-pyrrole-3-carbonyl]-amino}-phenoxy)-octanoic acid], the IC50 was over 50 µM. Work on `COC(=O)CCCCCCCOc1ccc(NC(=O)C2C(=O)CN(c3ccc(Cl)cc3)C2=O)cc1` (centres undefined) [8-(4-{[1-(4-Chloro-phenyl)-4-hydroxy-2-oxo-2,5-dihydro-1H-pyrrole-3-carbonyl]-amino}-phenoxy)-octanoic acid methyl ester] yielded an IC50 of over 50 µM. `COc1ccccc1N1CC(=O)C(C(=O)Nc2ccc(OCCCCCCCC(=O)O)cc2)C1=O` (centres undefined) [8-(4-{[4-Hydroxy-1-(2-methoxy-phenyl)-2-oxo-2,5-dihydro-1H-pyrrole-3-carbonyl]-amino}-phenoxy)-octanoic acid] gave an IC50 of over 50 µM. In the case of `O=C(O)CCCCCCCOc1ccc(NC(=O)C2C(=O)CN(c3ccc(N4CCOCC4)cc3)C2=O)cc1` (centres undefined) [8-(4-{[4-Hydroxy-1-(4-morpholin-4-yl-phenyl)-2-oxo-2,5-dihydro-1H-pyrrole-3-carbonyl]-amino}-phenoxy)-octanoic acid], the IC50 is reported as over 50 µM. In the case of `O=C(O)CCCCCCCOc1ccc(NC(=O)C2C(=O)NC(Cc3ccc(O)cc3)C2=O)cc1` (centres undefined) [8-(4-{[4-Hydroxy-5-(4-hydroxy-benzyl)-2-oxo-2,5-dihydro-1H-pyrrole-3-carbonyl]-amino}-phenoxy)-octanoic acid], the IC50 is reported as over 50 µM. Work on `O=C(O)CCCCCCCOc1ccc(NC(=O)C2C(=O)CN(Cc3ccccc3)C2=O)cc1` (centres undefined) [8-{4-[(1-Benzyl-4-hydroxy-2-oxo-2,5-dihydro-1H-pyrrole-3-carbonyl)-amino]-phenoxy}-octanoic acid] yielded an IC50 of over 50 µM. `O=C(O)CCCCCCCOc1ccc(NC(=O)C2C(=O)CN(c3cccc4ccccc34)C2=O)cc1` (centres undefined) [8-{4-[(4-Hydroxy-1-naphthalen-1-yl-2-oxo-2,5-dihydro-1H-pyrrole-3-carbonyl)-amino]-phenoxy}-octanoic acid] showed an IC50 of over 50 µM. Work on `CC1C(=O)C(C(=O)Nc2ccc(OCCCCCCCC(=O)O)cc2)C(=O)N1c1ccccc1` (centres undefined) [8-{4-[(4-Hydroxy-5-methyl-2-oxo-1-phenyl-2,5-dihydro-1H-pyrrole-3-carbonyl)-amino]-phenoxy}-octanoic acid] yielded an IC50 of over 50 µM.
